# Assay results published in publication PMC10067442, “In vivo quantitative high-throughput screening for drug discovery and comparative toxicology” (Disease Models & Mechanisms, 2023).
# Structures can show the parent of a compound that is named as a salt. Where two headings read alike, the source gives them in different places.
# Legend:
# C. elegans strain PE254 [1] = test: C. elegans LSC qHTS viability assay, Anti-Infectives library primary screen (BG-fed, 384-well); format: in vivo, Caenorhabditis elegans; conditions: for activity on C. elegans viability in primary qHTS (in words): seven-point titration, GFP area; for EC50: Caenorhabditis elegans, Fig. 3D
# Protocol: Levamisole, ivermectin and albendazole were purchased from Sigma-Aldrich. Stock solutions of all compounds were prepared at 10 mM in DMSO, and ivermectin was diluted to a 10 µM working dilution in DMSO. […] Of these, 284 (38%) are approved for clinical use in the United States, 32 (4%) were previously marketed for use in the United States, and 62 (8%) are used clinically outside of the United States. […] DMSO stock solutions of were arrayed in Echo-qualified 384-well cyclic olefin copolymer plates (Labcyte) in qHTS inter-plate dilution with seven concentrations, 1:5 dilution, resulting in a final concentration range of 2.5–20 mM high concentration titrated to 160 nM to 1.28 µM low concentration ([Yasgar et al., 2008]). ‘Assay-ready’ plates were prepared in 384-well uClear microtiter plates (Greiner BioOne), with compounds acoustically dispensed at 250 nl per well with an Echo 555 in the above inter-plate titration array. Two plates with DMSO added across the compound field at the same volume were prepared as screening controls (‘uniformity plates’). DMSO vehicle control was added to every well of column 1, and levamisole cytotoxicity control was added at a high concentration of 10 mM in wells 1–8 and titrated 1:3, starting at a high concentration of 10 mM to 4.57 µM in wells 9–16 of column 2 of every plate. Additionally, ivermectin, levamisol and albendazole were plated as internal controls on one assay plate in 16-point, 1:2 titration down six replicate columns per compound, starting at a high concentration of 10 µM (ivermectin) or 10 mM (levamisole and albendazole). Assay-ready plates were sealed and frozen at −80°C until use.
# C. elegans strain PE254 were collected from 12 NGM plates as above, transferred to 250 ml S medium supplemented with OP50 E. coli pellet collected from 2 l overnight culture, and grown for 5 days at 21°C with vigorous shaking in an Incu-Shaker Mini Shaking Incubator (Benchmark Scientific, Inc.). Eggs were axenized as above and hatched overnight in M9 buffer at 21°C and shaken at 65 rpm. Assay ready plates were thawed and allowed to equilibrate to ambient temperature. BGs in S medium (30 µl/well) at an OD600=0.85 were manually added across plates with a Capp pipette. Synchronized L1 worms from above were collected, diluted and plated at ten worms/30 µl/well with a Capp pipette into assay-ready microtiter plates pre-plated with BGs and compounds (240-fold dilution). […] No ethical approval or guidance is needed for working with nematodes.
# Data from the Anti-Infectives screen were normalized by plate to corresponding intra-plate controls as previously described ([Inglese et al., 2006]). Assay statistics were calculated using the same respective controls. Total object ‘GFP’ area (µm^2) and number of worms were normalized to the average signal of DMSO-treated wells as zero percent neutral control, and the average signal of 41.7 µM levamisole-treated wells as −100% activity. In-house software was used to fit the resulting inter-plate titration data to the standard Hill equation, and concentration–response curves were classified by activity as previously described ([Southall et al., 2009]). Curve fits assignments of −1.1, −1.2, −2.1, −2.2 and −3 were considered active and visually confirmed.
# C. elegans strain PE254 [2] = test: Life-stage distribution analysis by COPAS flow cytometry after 7-day treatment; format: in vivo, Caenorhabditis elegans; conditions: 7-day treatment at ∼EC75-80, mixed population of 2000 worms/well
# Protocol: After 7 days of compound treatment in six-well culture plates seeded with a mixed population of 2000 C. elegans strain PE254, a life-stage distribution analysis was determined by TOF and EC using the COPAS FP BioSorter, followed by bulk collection in a 50 ml conical tube for use in proteomics studies.
# [3] = read-out: qHTS potency based on GFP area
# [4] = read-out: qHTS potency based on worm number
Compound,activity on C. elegans viability in primary qHTS (in words) (C. elegans strain PE254 [1]),further results
O=C(NO)c1cccc(C(=O)NCCc2ccccc2)c1 [BRD73954],inactive,
Cc1noc2c1-c1ccccc1C(c1ccc(Cl)cc1)=N[C@H]2CC(N)=O [CPI-0610],Active,
CCNC(=O)C[C@@H]1N=C(c2ccc(Cl)cc2)c2cc(OC)ccc2-n2c(C)nnc21 [I-BET762],Active,
CC(=O)N1c2ccc(-c3ccc(C(=O)O)cc3)cc2[C@H](Nc2ccc(Cl)cc2)C[C@@H]1C [GSK1324726A],Active,
CCCC[C@@H](C=O)NC(=O)[C@H](CC(C)C)NC(=O)OCc1ccccc1 [Calpeptin],Inactive,
Cc1sc2c(c1C)C(c1ccc(Cl)cc1)=N[C@@H](CC(=O)Nc1ccc(O)cc1)c1nnc(C)n1-2 [OTX-015],inactive,
CC[C@H](C)[C@H](NC(=O)[C@H]([C@@H](C)CC)N(C)C(C)=O)C(=O)N[C@H](C(=O)N[C@@H](CC(C)C)C(=O)[C@@]1(C)CO1)[C@@H](C)O [Epoxomicin],Inactive,
O=[N+]([O-])c1ccc(S(=O)(=O)N2CCN(c3ccnc4cc(Cl)ccc34)CC2)c([N+](=O)[O-])c1 [VR23],Inactive,
CC(C)C[C@H](NC(=O)[C@@H](NC(=O)c1cccc(-c2ccccc2)n1)[C@@H](C)O)B(O)O [Delanzomib],,EC50 (C. elegans strain PE254 [1]; [3]): 0.405 µM; EC50 (C. elegans strain PE254 [1]; [4]): 0.311 µM
C=CC(=O)N1C/C(=C\c2ccc([N+](=O)[O-])cc2)C(=O)/C(=C/c2ccc([N+](=O)[O-])cc2)C1 [b-AP15],Inactive,
C[C@H](NC(=O)[C@@H](O)c1cc(F)cc(F)c1)C(=O)N[C@@H]1C(=O)N(C)c2ccccc2-c2ccccc21 [LY-411575],,effect on life stage viability (in words) (C. elegans strain PE254 [2]): affecting life-stage progression or number
CC(C)C[C@H](NC(=O)CNC(=O)c1cc(Cl)ccc1Cl)B(O)O [Ixazomib],,EC50 (C. elegans strain PE254 [1]; [3]): 1.13 µM; EC50 (C. elegans strain PE254 [1]; [4]): 0.863 µM
Cc1cc(/C=C/c2ccc3cc(N(C)C)ccc3[n+]2C)c(C)n1-c1ccccc1 [Pyrvinium pamoate],active,
CC(=O)Nc1cccc(-n2c(=O)n(C3CC3)c(=O)c3c(Nc4ccc(I)cc4F)n(C)c(=O)c(C)c32)c1 [Trametinib],,effect on life stage viability (in words) (C. elegans strain PE254 [2]): potent larval-stage depletion; effect on life stage viability (in words) (C. elegans strain PE254 [2]; listed as 9): affecting life-stage progression or number
Cc1sc2c(c1C)C(c1ccc(Cl)cc1)=N[C@@H](CC(=O)OC(C)(C)C)c1nnc(C)n1-2 [JQ1],Active,
CC(C)C[C@H](NC(=O)[C@H](CCc1ccccc1)NC(=O)CN1CCOCC1)C(=O)N[C@@H](Cc1ccccc1)C(=O)N[C@@H](CC(C)C)C(=O)[C@@]1(C)CO1 [Carfilzomib],Inactive,
Cn1cnc2c(F)c(Nc3ccc(Br)cc3Cl)c(C(=O)NOCCO)cc21 [Selumetinib],,effect on life stage viability (in words) (C. elegans strain PE254 [2]): no discernable effect; effect on life stage viability (in words) (C. elegans strain PE254 [2]; listed as 10): inactive
CC(C)C[C@H](NC(=O)CNC(=O)c1cc(Cl)ccc1Cl)B1OC(=O)C(CC(=O)O)(CC(=O)O)O1 [Ixazomib citrate],,EC50 (C. elegans strain PE254 [1]; [3]): 0.411 µM; EC50 (C. elegans strain PE254 [1]; [4]): 0.382 µM
COc1cc2c(cc1-c1c(C)noc1C)ncc1[nH]c(=O)n([C@H](C)c3ccccn3)c12 [I-BET151],inactive,
COC[C@H](NC(=O)c1cnc(C)s1)C(=O)N[C@@H](COC)C(=O)N[C@@H](Cc1ccccc1)C(=O)[C@@]1(C)CO1 [Oprozomib],Inactive,
